Results on six substances are retold here after US7563864B2, “Prolyl endopeptidase mediated destruction of T cell epitopes in whole gluten” (Celiac Sprue Research Foundation, priority 2004, dated 2009).

Data set [1] has as its system denatured hemoglobin substrate. As to the kind of experiment: Pepsin activity assay. It is filed as biochemical. As to conditions: standard chromogenic assay; 37° C. On the procedure:
Activity assays—Pepsin: 300 μL 2.5% Hemoglobin and 75 μL 0.3 M HCl were mixed and incubated for 10′ at 37° C., then added to 75 μL pepsin solution (0.1 mg/ml in 0.01 M HCl, pH=2.0). The samples were incubated for 0′, 10′ and 20′ at 37° C. (3 samples), and the reaction was stopped by addition of 750 μL 5% Trichloroacetic acid (TCA), and incubated 5′ at 37° C. For the 0′ samples, the TCA was added before the hemoglobin. Samples were centrifuged for 10′ at 13400×g. The absorption was recorded at 280 nm. One unit renders TCA soluble absorption of 0.001 at 280 nm per min at 37° C. from a denatured hemoglobin substrate.

Data set [2] is described as follows: Elastase activity assay. It is filed as biochemical. As to conditions: standard chromogenic assay; pH 8.0, 25° C. On the procedure:
Elastase: 935 μL 0.1 M Tris (pH 8.0) and 65 μL of Succinyl-Ala3-p-Nitro anilide (4.4 mM in 0.1 M Tris, pH 8.0) were mixed and incubated at room temperature for 10′. 5 μL Elastase (0.2 mg/ml) were added and the absorption at 410 nm was recorded for 2′, every 10″. One unit hydrolyzes 1 μmol of Succinyl-Ala3-p-Nitro anilide per min at pH 8.0 and 25° C. Extinction coefficient 8.8 cm^2/μmol at 410 nm. […].

Data set [3] in a line: Chymotrypsin activity assay. The conditions noted are these: standard chromogenic assay; pH 7.8, 25° C. In kind it is biochemical. On the procedure: Chymotrypsin: 750 μL 80 mM Tris-HCl, 100 mM CaCl2, pH 7.8 and 700 μL 1.07 mM BTEE (in Water/MeOH 1:1) were mixed and incubated at room temperature for 10′. 5 μL Chymotrypsin (1 mg/ml) were added and the absorption at 256 nm was recorded for 2′, every 10″. One unit hydrolyzes 1 μmol of BTEE per min at pH 7.8 and 25° C. Extinction coefficient 0.964 cm^2/μmol at 256 nm. 1 BTEE unit=29.55 USP units.

The subject of data set [4] is intestinal T cell line 446.1.3. Nature of the data set: T cell proliferation assay, polyclonal T cell line 446.1.3. As to conditions: DQ2+ APC, 5 μM TG2-treated peptide, 3H thymidine incorporation. It is filed as cell-based, human. An excerpt:
(§1) T cell assays—The generation of polyclonal gluten-specific T cell lines derived from ex vivo gluten challenged small intestinal biopsy specimens of adult Celiac Sprue patients have been described elsewhere. For this study 14 different intestinal T cell lines derived from 13 DQ2+celiac patients were selected based on two basic criteria; effective recognition of TG2-treated digests of gluten and significant responses to at least two different gluten epitopes (Table 2). The generation of intestinal T cell clones and the epitope specificity of these clones, except TCC 387.3, has been described elsewhere (10). The TCC 387.3 recognizes a TG2-dependent epitope, defined as γ-VI that is contained within residues 62-72 (PQQPFPQQPQQ) of recombinant γ-5 gliadin. The freeze-dried, proteolyzed gluten samples were dissolved in PBS with 2 mM CaCl2 and treated with 150 μg/ml human recombinant TG2 (14) or, in some experiments 200 μg/ml guinea pig transglutaminase (Sigma T-5398), for 2 hours at 37° C. The TG2-treated samples were incubated overnight in triplicates on U-bottomed 96 well plates with 75 000 cells per well of DQ2 homozygous, irradiated (75 Gy) EBV-transformed B-lymphoblastoid cell lines in a volume of 100 μl 15% pooled, inactivated human serum and RPMI1640. After the incubation 50 μl of freshly thawed T cells (1×10^6 cells/ml) were added to each well. The proliferation in the wells was evaluated by ^3H thymidine incorporation from 48-72 hours after the addition of the T cells.

The test system of data set [5] is intestinal T cell line 421.1.4. Nature of the data set: T cell proliferation assay, polyclonal T cell line 421.1.4. It is filed as cell-based, human. As to conditions: DQ2+ APC, 5 μM TG2-treated peptide, 3H thymidine incorporation.
Text: as §1
In general terms: Dividing cells build labelled thymidine or BrdU into new DNA.

Data set [6] has as its system intestinal T cell line 422.4.2. As to the kind of experiment: T cell proliferation assay, polyclonal T cell line 422.4.2. The arrangement: key: −: no response; Stimulatory index (SI; T + APC + TG2-treated peptide divided by T + APC) of 3-10; ++: SI above 10. The conditions noted are these: DQ2+ APC, 5 μM TG2-treated peptide, 3H thymidine incorporation. In kind it is cell-based, human.
Text: as §1

Data set [7] has as its system intestinal T cell line 494.1.1. Nature of the data set: T cell proliferation assay, polyclonal T cell line 494.1.1. In kind it is cell-based, human. The arrangement: key: −: no response; Stimulatory index (SI; T + APC + TG2-treated peptide divided by T + APC) of 3-10; ++: SI above 10. The conditions noted are these: DQ2+ APC, 5 μM TG2-treated peptide, 3H thymidine incorporation.
Text: as §1

The test system of data set [8] is intestinal T cell line 496.1.2. Nature of the data set: T cell proliferation assay, polyclonal T cell line 496.1.2. As to conditions: DQ2+ APC, 5 μM TG2-treated peptide, 3H thymidine incorporation. In kind it is cell-based, human.
Text: as §1

The subject of data set [9] is intestinal T cell line 461.1.4. As to the kind of experiment: T cell proliferation assay, polyclonal T cell line 461.1.4. It is filed as cell-based, human. The arrangement: key: −: no response; Stimulatory index (SI; T + APC + TG2-treated peptide divided by T + APC) of 3-10; ++: SI above 10. As to conditions: DQ2+ APC, 5 μM TG2-treated peptide, 3H thymidine incorporation.
Text: as §1

For data set [10], the system named is intestinal T cell line 437.1.1. Nature of the data set: T cell proliferation assay, polyclonal T cell line 437.1.1. It is filed as cell-based, human. The arrangement: key: −: no response; Stimulatory index (SI; T + APC + TG2-treated peptide divided by T + APC) of 3-10; ++: SI above 10. The conditions noted are these: DQ2+ APC, 5 μM TG2-treated peptide, 3H thymidine incorporation.
Text: as §1

Data set [11] concerns intestinal T cell line 502.1.2. Nature of the data set: T cell proliferation assay, polyclonal T cell line 502.1.2. In kind it is cell-based, human. The arrangement: key: −: no response; Stimulatory index (SI; T + APC + TG2-treated peptide divided by T + APC) of 3-10; ++: SI above 10. As to conditions: DQ2+ APC, 5 μM TG2-treated peptide, 3H thymidine incorporation.
Text: as §1

Data set [12] has as its system intestinal T cell line 491.1.3. As to the kind of experiment: T cell proliferation assay, polyclonal T cell line 491.1.3. It is filed as cell-based, human. The arrangement: key: −: no response; Stimulatory index (SI; T + APC + TG2-treated peptide divided by T + APC) of 3-10; ++: SI above 10. The conditions noted are these: DQ2+ APC, 5 μM TG2-treated peptide, 3H thymidine incorporation.
Text: as §1

Data set [13] has as its system intestinal T cell line 437.1.3. Nature of the data set: T cell proliferation assay, polyclonal T cell line 437.1.3. In kind it is cell-based, human. The arrangement: key: −: no response; Stimulatory index (SI; T + APC + TG2-treated peptide divided by T + APC) of 3-10; ++: SI above 10. The conditions noted are these: DQ2+ APC, 5 μM TG2-treated peptide, 3H thymidine incorporation.
Text: as §1

Data set [14] deals with intestinal T cell line 482.1.4. As to the kind of experiment: T cell proliferation assay, polyclonal T cell line 482.1.4. The conditions noted are these: DQ2+ APC, 5 μM TG2-treated peptide, 3H thymidine incorporation. In kind it is cell-based, human. The arrangement: key: −: no response; Stimulatory index (SI; T + APC + TG2-treated peptide divided by T + APC) of 3-10; ++: SI above 10.
Text: as §1

For data set [15], the system named is intestinal T cell line 432.2.1. As to the kind of experiment: T cell proliferation assay, polyclonal T cell line 432.2.1. As to conditions: DQ2+ APC, 5 μM TG2-treated peptide, 3H thymidine incorporation. The arrangement: key: −: no response; Stimulatory index (SI; T + APC + TG2-treated peptide divided by T + APC) of 3-10; ++: SI above 10. In kind it is cell-based, human.
Text: as §1

Data set [16] deals with intestinal T cell line 451.1.1. As to the kind of experiment: T cell proliferation assay, polyclonal T cell line 451.1.1. It is filed as cell-based, human. The conditions noted are these: DQ2+ APC, 5 μM TG2-treated peptide, 3H thymidine incorporation.
Text: as §1

Data set [17] has as its system intestinal T cell line 488.3.1. As to the kind of experiment: T cell proliferation assay, polyclonal T cell line 488.3.1. In kind it is cell-based, human. The arrangement: key: −: no response; Stimulatory index (SI; T + APC + TG2-treated peptide divided by T + APC) of 3-10; ++: SI above 10. The conditions noted are these: DQ2+ APC, 5 μM TG2-treated peptide, 3H thymidine incorporation.
Text: as §1

A short description of data set [18]: Trypsin activity assay. It is filed as biochemical. The conditions noted are these: standard chromogenic assay; pH 8.2, 25° C. On the procedure:
Trypsin: 870 μL 46 mM Tris-HCl, 11.5 mM CaCl2, pH 8.1 and 100 μL 10 mM N-α-p-Tosyl-L-Arginine methyl ester (TAME) were mixed and incubated at room temperature for 10′. 5 μL Trypsin (1 mg/ml) were added and the absorption at 247 nm was recorded for 2′, every 10″. Unit definition: One unit hydrolyzes 1 μmol of TAME per min at pH 8.2 and 25° C. Extinction coefficient 0.18 cm^2/μmol at 247 nm. 1 TAME unit=19.2 USP units.

As to Pepsin, in [1], the specific activity was determined as 4000 U/mg.

In the case of Elastase, the specific activity in data set [2] is recorded as 5 U/mg.

As to Chymotrypsin, the specific activity in data set [3] is 800 USP/mg.

Regarding GIIQPQQPAQL [γ-II], the “Response to TG2-treated gluten peptides (stimulatory index)” value (“Response … (stimulatory index)” for short) is listed as “++ (SI above 10)” in [4]; “+ (Stimulatory index (SI; T + APC + TG2-treated peptide divided by T + APC) of 3-10)” in data set [5]; “−” in data set [6]; “−” in data set [7]; “++ (SI above 10)” in data set [8]; “−” in [9]. In addition, the “Response … (stimulatory index)” value in [10], in data set [11], in data set [12], in data set [13], in data set [14] and in [15] was “−” each time. The “Response … (stimulatory index)” value is listed as “++ (SI above 10)” in data set [16] and “−” in data set [17].

Consider “LQLQPFPQPQLPYPQPQLPYPQPQLPYPQPQPF [αG-33]”, for which the “Response … (stimulatory index)” value is recorded as “++ (SI above 10)” in data set [4]; “++ (SI above 10)” in [5]; “++ (SI above 10)” in [6]; “++ (SI above 10)” in data set [7]; “++ (SI above 10)” in [8]; “+ (Stimulatory index (SI; T + APC + TG2-treated peptide divided by T + APC) of 3-10)” in [9]. Also, the “Response … (stimulatory index)” value in data set [10], in [11], in [12], in data set [13], in [14] and in data set [15] was “++ (SI above 10)” throughout. In addition, the “Response … (stimulatory index)” value in [16] and in data set [17] was “++ (SI above 10)” each time.

For the substance Trypsin, the specific activity in data set [18] turned out to be 2000 USP/mg.
